Reference: publication PMC3858267, “The Enhanced In Vivo Activity of the Combination of a MEK and a PI3K Inhibitor Correlates with [^18F]-FLT PET in Human Colorectal Cancer Xenograft Tumour-Bearing Mice” (PLoS ONE, 2013)
Like-named read-outs stand apart in the source and are kept apart here. Marks after values point to notes of the source that are not given here.

How the values were obtained:
[1] = rat, in vivo, 100 mg/kg; cited from earlier work
[2] = test system: phospho-4EBP1 (Thr37/46); test: PD Western blot of HCT116 tumour lysates: 4EBP1 phosphorylation; type: in vivo, mice; conditions: 0.25–24 hours after single p.o. dose; 1 mg/kg PD 0325901, 100 mg/kg GDC-0941 or combination (combination compared to single agent PI3K inhibitor)
[3] = test system: phospho-Akt (Ser473); test: PD Western blot of HCT116 tumour lysates: AKT phosphorylation; type: in vivo, mice; conditions: 0.25–24 hours after single p.o. dose; 1 mg/kg PD 0325901, 100 mg/kg GDC-0941 or combination (combination compared to single agent PI3K inhibitor)
Procedure: (§1) Blood was collected into heparinised tubes, and plasma was separated and stored at −20°C until analysed. Tumours were removed, snap frozen in liquid nitrogen and stored at −80°C prior to PK and PD analyses, as described below.
For PD analyses, tumours (2 to 4∼2.5 mm^3 pieces) were disaggregated in 1 ml PhosphoSafe™ extraction reagent (Merck Chemicals Ltd, Nottingham, Nottinghamshire, UK) containing a protease inhibitor cocktail (Pierce, Thermo Scientific, Rockford, Illinois, USA) at the manufacturer's recommended dilution using a Medimachine™ (BD Biosciences, Oxford, UK), centrifuged, and the supernatant removed and analysed by Western blotting. […] Antibody binding was detected by incubation with a HRP-conjugated goat anti-rabbit polyclonal antibody (Dako, Glastrop, Denmark).

[4] = cited from earlier work
[5] = design: method as in PMID 20332327; conditions: single agent; such as retinal vein occlusion; cited from earlier work
[6] = test system: phospho-p44/42 MAPK (Thr202/Tyr204) (ERK1/2); test: PD Western blot of HCT116 tumour lysates: ERK1/2 phosphorylation; type: in vivo, mice
Procedure: as §1
For PD analyses, tumours (2 to 4∼2.5 mm^3 pieces) were disaggregated in 1 ml PhosphoSafe™ extraction reagent (Merck Chemicals Ltd, Nottingham, Nottinghamshire, UK) containing a protease inhibitor cocktail (Pierce, Thermo Scientific, Rockford, Illinois, USA) at the manufacturer's recommended dilution using a Medimachine™ (BD Biosciences, Oxford, UK), centrifuged, and the supernatant removed and analysed by Western blotting. Proteins were resolved on Novex® 4–12% (w/w) Tris-glycine gels (Invitrogen Ltd, Renfrew, Paisley, UK) and electrotransferred onto Hybond C nitrocellulose membrane (GE Healthcare Life Sciences, Hatfield, Hertfordshire, UK). Membranes were incubated with phospho-4EBP1 (Thr37/46) (#2855), phospho-p44/42 MAPK (Thr202/Tyr204) (#4370), phospho-Akt (Ser473) (#4060) or phospho-S6 ribosomal protein (Ser235/236) (#4858) monoclonal antibodies obtained from Cell Signalling Technology (New England BioLabs (UK) Ltd, Hitchin, Hertfordshire, UK). Antibody binding was detected by incubation with a HRP-conjugated goat anti-rabbit polyclonal antibody (Dako, Glastrop, Denmark). Blots were developed using Pierce ECL (enhanced chemiluminescence) western blotting substrate (Thermo Scientific, Rockford, Illinois, USA), or SuperSignal® West Dura extended duration substrate (Thermo Scientific, Rockford, Illinois, USA), and Kodak X-ray film (Genetic Research Instrumentation Ltd, Braintree, Essex, UK) on a MediPhot 937 film developer (Colenta, Weiner Neustadt, Austria), then digitally scanned.

[7] = test system: HCT116 cells; design: method as in PMID 22415236; conditions: previously determined; read-out: in vitro GI50; cited from earlier work
[8] = test system: HCT116 human tumour xenografts; test: Anti-tumour activity (time to RTV3/RTV4) in HCT116 human tumour xenografts; type: in vivo, mice; conditions: 1 mg/kg PD 0325901, 100 mg/kg GDC-0941, alone or in combination, p.o. once daily for 14 days
Procedure: (§2) Animal studies were all carried out using female athymic CD1 nude mice (Charles River, Kent, UK), implanted with HCT116 or HT29 xenografts (1×10^7 cells in 50 µl media injected subcutaneously into the right flank), maintained and handled in isolators under specific pathogen-free conditions.

[9] = test system: phospho-S6 ribosomal protein (Ser235/236); test: PD Western blot of HCT116 tumour lysates: S6 phosphorylation; type: in vivo, mice; conditions: 0.25–24 hours after single p.o. dose; 1 mg/kg PD 0325901, 100 mg/kg GDC-0941 or combination (combination compared to single agent PI3K inhibitor)
[10] = test system: HCT116 human tumour xenografts; test: [18F]-FLT PET tumour uptake in HCT116 xenografts; type: in vivo, mice; conditions: 1 mg/kg PD 0325901, 100 mg/kg GDC-0941, alone or in combination, p.o. once daily for 2 days
Procedure: Before treatment and after 2 days of treatment as described above, mice bearing HCT116 human tumour xenografts (7–9 mice/group) were anaesthetised, cannulated via their tail vein and placed in the prone position on a custom-made heated bed, which held three mice at once, within a MOSAIC PET scanner (Philips, Eindhoven, NL). [^18F]-FLT was obtained from PETNET (PETNET, Nottingham, UK), and radioactivity levels were measured using a Capintec well counter (Capintec, NJ, USA). Approximately 10 MBq of [^18F]-FLT was administered intravenously and a 1 hour dynamic PET scan was performed, consisting of ten 1 minute, six 5 minute and two 10 minute time frames. Mice were recovered after scanning and continued to receive treatment for the remainder of the study. Data were analysed using Imalytics software (Philips, Aachen, Germany); a 3D region of interest was drawn around the tumour and the standardised uptake value (SUV) was calculated by dividing the tissue concentration (MBq/ml) by the injected dose (MBq)/g body weight. Mean SUV values were then plotted against time, and the area under the curve (AUC) and the percentage change in the area under the curve relative to the baseline scan was calculated.

[11] = test system: HT29 human tumour xenografts; test: Anti-tumour activity (time to RTV3/RTV4) in HT29 human tumour xenografts; type: in vivo, mice; conditions: 1 mg/kg PD 0325901, 100 mg/kg GDC-0941, alone or in combination, p.o. once daily for 14 days
Procedure: as §2

[12] = Single dose PK: plasma and tumour tissue drug concentrations by HPLC in HCT116 xenograft-bearing mice; type: in vivo; conditions: for AUC: po, read-out: PD 0325901 AUC Plasma (converted); for AUC / PD 0325901 AUC Tumour: over 24 hours, mean ± SD
Procedure: as §1
For PK analyses, drug was extracted from 60 µl aliquots of samples by protein precipitation with 9 volumes of acetonitrile (MeCN). Samples were centrifuged at 3000g for 5 minutes at 4°C, and 500 µl of the supernatant evaporated to dryness under nitrogen gas at 30°C using a Zymark Evaporator (Caliper Life Sciences Limited, Cheshire, UK). Samples were reconstituted in 100 µl HPLC mobile phase consisting of 40% acetonitrile and 60% (v/v) 0.1% formic acid pH 4.0 (v/v), and 50 µl of the supernatant applied to a 10 cm Xterra Waters 186000436 C18 3.5 µm column (Waters, Hertfordshire, UK) fitted with an in line filter. Compounds were eluted with the above mobile phase at 1 ml/min using a Waters Millennium Chromatography system (Waters, Hertfordshire, UK). Analytes were detected by UV absorbance at 275 and 315 nm, at retention times of 6.8–7.3 and 3.9–4.3 minutes for PD 0325901 and GDC-0941, respectively. For analysis of drug in tumour tissue, tumours were homogenised in 3 volumes of PBS (w/v) and 50 µl aliquots extracted with 9 volumes of MeCN, and centrifuged, evaporated and analysed as described above.

Question: With O=C(NOC[C@H](O)CO)c1ccc(F)c(F)c1Nc1ccc(I)cc1F [PD 0325901] as the compound, how does the “toxicity of oral and i.v. doses” value [1] read?
Answer: non-toxic

Question: And the “phosphorylation of 4EBP1 in tumour” value [2]?
Answer: no marked effect

Question: What about the “phosphorylation of AKT in tumour” value [3] of the same compound?
Answer: no marked effect

Question: And the maximum tolerated dose [4]?
Answer: 25 mg/kg

Question: And the “toxicity in clinical trials” value [5]?
Answer: ocular and neurological toxicity

Question: What about the “phosphorylation of ERK1/2 in tumour” value ([6]; 3 and 6 hours after single p.o. dose of 1 mg/kg PD 0325901) of the same compound?
Answer: completely ablate

Question: What about the “phosphorylation of ERK1/2 in tumour” value ([6]; 1 hour after single p.o. dose of 1 mg/kg PD 0325901) of the same compound?
Answer: reduce

Question: What about the GI50 [7] of the same compound?
Answer: 21 nM

Question: And the “Time to RTV3, Mean ± SD” value [8]?
Answer: 19 ± 7 days

Question: And the “Time to RTV3, Median ± IR” value [8]?
Answer: 18 ± 12 days

Question: And the “Time to RTV4, Mean ± SD” value [8]?
Answer: 23 ± 8 days

Question: And the “Time to RTV4, Median ± IR” value [8]?
Answer: 21 ± 11 days

Question: What about the “phosphorylation of S6 in tumour” value [9] of the same compound?
Answer: no marked effect

Question: What about the “decrease in tumour [18F]-FLT uptake (SUV AUC) after 2 days versus baseline” value [10] of the same compound?
Answer: no significant difference

Question: What about the “Time to RTV3, Mean ± SD” value [11] of the same compound?
Answer: 10 ± 4 days

Question: And the “Time to RTV3, Median ± IR” value [11]?
Answer: 10 ± 4 days

Question: And the “Time to RTV4, Mean ± SD” value [11]?
Answer: 11 ± 4 days

Question: What about the “Time to RTV4, Median ± IR” value [11] of the same compound?
Answer: 11 ± 3 days

Question: What about the “increase in plasma AUC of PD 0325901 following concomitant dosing with GDC-0941” value ([12]; 1 or 10 mg/kg PD 0325901 alone versus with GDC-0941) of the same compound?
Answer: 2–3 fold

Question: And the “increase in plasma AUC with 10-fold increment in dose” value ([12]; PD 0325901 10 versus 1 mg/kg)?
Answer: 15 fold

Question: What about the “tumour tissue level (undetectable, limit of detection)” value ([12]; all time points after 1 mg/kg PD 0325901, per g of tumour material) of the same compound?
Answer: < 0.4 nmol/g

Question: And the concentration at 24 h ([12]; mouse, plasma, oral, at 24 hours after 1 mg/kg PD 0325901, read-out: plasma level (undetectable, limit of detection))?
Answer: < 100 nM

Question: What about the AUC ([12]; mouse, plasma, 1 mg/kg, single p.o. dose 1 mg/kg PD 0325901 alone) of the same compound?
Answer: 1.38 µM·h

Question: What about the AUC ([12]; mouse, plasma, 10 mg/kg, single p.o. dose 10 mg/kg PD 0325901+10 mg/kg GDC-0941) of the same compound?
Answer: 40 µM·h

Question: What about the AUC ([12]; mouse, plasma, 10 mg/kg, single p.o. dose 10 mg/kg PD 0325901 alone) of the same compound?
Answer: 21.6 µM·h

Question: What about the AUC ([12]; mouse, plasma, single p.o. dose 1 mg/kg PD 0325901+10 mg/kg GDC-0941) of the same compound?
Answer: 2.73 µM·h

Question: And the AUC ([12]; mouse, plasma, single p.o. dose 1 mg/kg PD 0325901+100 mg/kg GDC-0941)?
Answer: 3.15 µM·h

Question: And the AUC ([12]; mouse, plasma, single p.o. dose 10 mg/kg PD 0325901+100 mg/kg GDC-0941)?
Answer: 54.1 µM·h

Question: What about the “PD 0325901 AUC Tumour” value ([12]; single p.o. dose 10 mg/kg PD 0325901+10 mg/kg GDC-0941) of the same compound?
Answer: 399±72^d,f µM.min

Question: What about the “PD 0325901 AUC Tumour” value ([12]; single p.o. dose 10 mg/kg PD 0325901 alone) of the same compound?
Answer: 1082±232^d,e µM.min
